Assays:
MMP-1 = target: T1, MMP-1 (Homo sapiens, UniProt P03956); assay: Thiopeptolide assay, MMP-1; assay type: biochemical; details: full-length enzyme, 5 nM; pH 7.0; 100 μM thiopeptolide substrate
T1 construct: purchased Washington University School of Medicine, St. Louis, Mo
T1 sequence (P03956 100-469): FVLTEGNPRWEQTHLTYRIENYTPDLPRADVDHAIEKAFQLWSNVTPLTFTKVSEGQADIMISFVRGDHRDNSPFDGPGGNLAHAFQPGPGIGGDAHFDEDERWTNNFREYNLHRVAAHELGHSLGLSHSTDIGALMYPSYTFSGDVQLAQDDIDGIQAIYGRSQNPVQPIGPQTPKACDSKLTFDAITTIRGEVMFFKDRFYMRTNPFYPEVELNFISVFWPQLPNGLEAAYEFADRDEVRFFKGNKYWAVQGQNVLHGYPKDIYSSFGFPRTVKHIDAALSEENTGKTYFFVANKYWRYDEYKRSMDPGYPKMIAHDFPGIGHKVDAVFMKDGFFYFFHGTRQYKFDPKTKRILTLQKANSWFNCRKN
Experimental: (§1) IC50 values were determined using a thiopeptolide substrate, Ac-Pro-Leu-Gly-thioester-Leu-Leu-Gly-OEt (Ye Q. Z., Johnson L. L., Hupe D. J., and Baragi V., "Purification and Characterization of the Human Stromelysin Catalytic Domain Expressed in Escherichia coli," Biochemistry,1992;31:11231-11235). MMP-1, MMP-7, and MMP-13 activity was assayed in a method similar to MMP-2 and MMP-3 (SCD and GCD). MMP-1 can be obtained from Washington University School of Medicine, St. Louis, Mo. MMP-7 can be obtained in accordance with the known procedure set forth by Ye Q. Z., Johnson L. L., and Baragi V., "Gene Syntheses and Expression in E. coli for PUMP, a Human Matrix Metalloproteinase," Biochem. and Biophys. Res. Comm., 1992;186:143-149. MMP13 can be obtained in accordance with the known procedure set forth by Freije J. M. P. et al., "Molecular Cloning and Expression of Collegenase-3, a Novel Human Matrix Metalloproteinase Produced by Breast Carcinomas," J. Bio. Chem., 1994;269:16766-16773.
(§2) Hydrolysis of the thiopeptolide substrate Ac-Pro-Leu-Gly-thioester-Leu-Leu-Gly-OEt (Bachem) is used as the primary screen to determine IC50 values for MMP inhibitors. A 100 μL reaction contains 1 mM 5,5'-dithiobis(2-nitrobenzoic acid) (DTNB), 100 μM substrate, 0.1% BRIJ® 35, PROTEIN GRADE®, Detergent, 10% solution, Sigma, St. Louis, Mo. [polyoxyethyleneglycol dodecyl ether; polyoxyethylene (23) lauryl ether], enzyme, and inhibitor in the appropriate reaction buffer. Activated full-length enzymes are assayed at 5 nM, Stromelysin Catalytic Domain (SCD) at 10 nM, and Gelatinase A Catalytic Domain (GaCD) at 1 nM. Inhibitors are screened from 100 μM to 1 nM. Full-length enzymes (MMP-1 and MMP-7) are assayed in 50 mM HEPES, 10 mM CaCl2, pH 7.0; SCD in 50 mM MES, 10 mM CaCl2, pH 6.0; and GaCD in 50 mM MOPS, 10 mM CaCl2, 10 μM ZnCl2, pH 7.0. The change in absorbance at 405 nm is monitored on a ThermoMax microplate reader at room temperature continuously for 20 minutes.

MMP-2CD = assay: Thiopeptolide assay, gelatinase A catalytic domain (GCD/GaCD); assay type: biochemical; details: 1 nM, pH 7.0, 100 μM thiopeptolide substrate
Experimental: as §1, §2

MMP-3CD = target: T2, MMP-3CD (Homo sapiens, UniProt P08254); assay: Thiopeptolide assay, stromelysin-1 catalytic domain (SCD); assay type: biochemical; details: 10 nM, pH 6.0, 100 μM thiopeptolide substrate
T2 construct: Stromelysin Catalytic Domain (SCD) at 10 nM; made in house; host or cells: Escherichia coli
T2 sequence (P08254 100-272 limits assumed): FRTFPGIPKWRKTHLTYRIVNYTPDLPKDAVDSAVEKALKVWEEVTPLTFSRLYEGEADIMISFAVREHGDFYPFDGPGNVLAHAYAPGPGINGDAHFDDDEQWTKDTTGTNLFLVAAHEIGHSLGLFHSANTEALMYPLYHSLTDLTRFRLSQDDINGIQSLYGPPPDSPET
Experimental: as §1, §2

MMP-7 = target: T3, MMP-7 (Homo sapiens, UniProt P09237); assay: Thiopeptolide assay, MMP-7; assay type: biochemical; details: full-length enzyme, 5 nM; pH 7.0; 100 μM thiopeptolide substrate
T3 construct: made in house; host or cells: E. coli
T3 sequence (P09237 95-267): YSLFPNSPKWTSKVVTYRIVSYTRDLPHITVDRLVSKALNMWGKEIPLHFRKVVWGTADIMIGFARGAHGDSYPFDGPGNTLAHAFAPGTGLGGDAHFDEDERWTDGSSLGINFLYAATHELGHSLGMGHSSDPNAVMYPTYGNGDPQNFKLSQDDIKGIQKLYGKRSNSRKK
Experimental: as §1, §2

MMP-9 = MMP-9 (Homo sapiens, UniProt P14780); assay: Thiopeptolide assay, MMP-9; assay type: biochemical; details: thiopeptolide substrate
MMP-9, sequence (P14780 94-707): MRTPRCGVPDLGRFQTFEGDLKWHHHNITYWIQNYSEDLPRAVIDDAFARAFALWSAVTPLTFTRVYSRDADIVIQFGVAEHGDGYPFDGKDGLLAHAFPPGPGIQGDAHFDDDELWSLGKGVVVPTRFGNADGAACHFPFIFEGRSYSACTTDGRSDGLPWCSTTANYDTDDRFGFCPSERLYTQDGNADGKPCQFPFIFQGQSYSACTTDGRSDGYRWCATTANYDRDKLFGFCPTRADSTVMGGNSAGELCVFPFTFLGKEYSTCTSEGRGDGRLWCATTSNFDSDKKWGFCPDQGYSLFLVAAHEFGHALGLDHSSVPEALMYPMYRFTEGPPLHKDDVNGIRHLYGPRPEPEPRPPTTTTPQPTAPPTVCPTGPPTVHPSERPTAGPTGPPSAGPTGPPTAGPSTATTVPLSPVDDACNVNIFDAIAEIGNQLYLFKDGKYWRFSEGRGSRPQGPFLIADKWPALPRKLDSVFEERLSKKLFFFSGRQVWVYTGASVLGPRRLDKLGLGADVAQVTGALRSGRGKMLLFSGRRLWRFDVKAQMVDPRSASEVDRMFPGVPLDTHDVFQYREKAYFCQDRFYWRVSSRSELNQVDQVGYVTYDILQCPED
Experimental: [The source words this procedure for another target and reports this target under the same test.] as §1, §2

MMP-13CD = assay: Thiopeptolide assay, MMP-13CD; assay type: biochemical, Human; details: catalytic domain; thiopeptolide substrate
Experimental: as §1, §2

MMP-14CD = assay: Thiopeptolide assay, MMP-14CD; assay type: biochemical; details: catalytic domain; thiopeptolide substrate
Experimental: as §1, §2

SMILES | IC50 (MMP-1) [µM] | IC50 (MMP-2CD) [nM] | IC50 (MMP-3CD) [nM] | IC50 (MMP-7) [µM] | IC50 (MMP-9) [µM] | IC50 (MMP-13CD) [µM] | IC50 (MMP-14CD) [nM]
O=C(O)[C@H](CCc1ccccc1)NS(=O)(=O)c1ccc2c(c1)Sc1ccccc1O2 [Example 2, (S)-2-(Phenoxathiine-2-sulfonylamino)-4-phenyl-butyric acid] | > 100 | 33 | 54 | 7.9 | 16.6 | 1.39 | 92
O=C(O)[C@H](CCc1ccccc1)NS(=O)(=O)c1ccc2c(c1)Cc1ccccc1O2 [Example 3, (S)-4-Phenyl-2-(9H-xanthene-2-sulfonylamino)-butyric acid] | > 100 | 200 | 68 | 3.2 | > 100 | 0.5 | 1000
O=C(O)[C@H](CO)NS(=O)(=O)c1ccc2c(c1)Cc1ccccc1O2 [Example 6, (S)-3-Hydroxy-2-(9H-xanthene-2-sulfonylamino)-propionic acid] | > 100 | 650 | 440 | 34 | > 100 | 4.3 | 4100
O=C(O)[C@H](CCc1ccccc1)NS(=O)(=O)c1ccc2c(c1)S(=O)(=O)c1ccccc1O2 [Example 7, (S)-2-(10,10-Dioxo-10H-10λ^6-phenoxathiine-2-sulfonylamino)-4-phenyl-butyric acid] | > 100 | 2300 | 3750 | 24 | > 100 | 73 | 3700
C[S+]([O-])CC[C@H](NS(=O)(=O)c1ccc2c(c1)Sc1ccccc1O2)C(=O)O (stereo partly drawn) [Example 10, (S)-4-Methanesulfinyl-2-(phenoxathiine-2-sulfonylamino)-butyric acid] | 72 | 58.5 | 165 | 9.15 | 38 | 4.1 | 285

Results, then the compound that gave them:

IC50 (MMP-1) [µM] | IC50 (MMP-2CD) [nM] | IC50 (MMP-3CD) [nM] | IC50 (MMP-7) [µM] | IC50 (MMP-9) [µM] | IC50 (MMP-13CD) [µM] | IC50 (MMP-14CD) [nM] | SMILES
> 100 | 15400 | 6900 | 27.6 | > 100 | > 100 | 40000 | CC(C)[C@H](NS(=O)(=O)c1ccc2c(c1)Sc1ccccc1S2)C(=O)O [Example 1, (S)-3-Methyl-2-((thianthren-2-ylsulfonyl)amino)butanoic acid]
39 |  | 53 | 6.7 | 19 |  |  | CC(C)[C@H](NS(=O)(=O)c1ccc2c(c1)Sc1ccccc1O2)C(=O)O [Example 4, (S)-3-Methyl-2-(phenoxathiine-2-sulfonylamino)-butyric acid]
> 100 | 69 | 180 | 23 | 82 | 1.8 | 390 | O=C(O)[C@H](CO)NS(=O)(=O)c1ccc2c(c1)Sc1ccccc1O2 [Example 5, (S)-3-Hydroxy-2-(phenoxathiine-2-sulfonylamino)-propionic acid]
6.25 | 27 | 15.5 | 19 | 12 | 0.27 | 155 | CC(C)[C@@H](NS(=O)(=O)c1ccc2c(c1)Sc1ccccc1O2)C(=O)O [Example 8, (R)-3-Methyl-2-(phenoxathiine-2-sulfonylamino)-butyric acid]
76 | 33 | 295 | 19 | 23 | 5.25 | 190 | C[C@H](NS(=O)(=O)c1ccc2c(c1)Sc1ccccc1O2)C(=O)O [Example 9, (S)-2-(Phenoxathiine-2-sulfonylamino)-propionic acid]
55 | 23.5 | 62.5 | 8.7 | 18 | 3.9 | 300 | CC(C)C[C@H](NS(=O)(=O)c1ccc2c(c1)Sc1ccccc1O2)C(=O)O [Example 11, (S)-4-Methyl-2-(phenoxathiine-2-sulfonylamino)-pentanoic acid]

— patent publication US6117869A, “Compounds for and methods of inhibiting matrix metalloproteinases” (Warner-Lambert Company, priority 1999, dated 2000)
